This is an account of results in patent US20230391748A1, “BICYCLIC INHIBITORS OF IRAK” (priority 2022, published 2023).

Assay [1] concerns TNF-α in Human Primary Monocyte-Derived Dendritic Cells. Nature of the assay: Gardiquimod-Induced TNF-α in Human Primary Monocyte-Derived Dendritic Cells. The class given is cell-based. The settings on record: Dendritic cell, IFNγ-primed monocyte-derived dendritic cells, 4 μg/ml Gardiquimod, 6 hours, TNF-α ELISA, read-out: TNFα (DC, GARD) (IC50). The procedure, abridged: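 Monocytes differentiated 7 days with GM-CSF and IL-4, then primed 24 h with 50 ng/ml IFN-γ. Compound added 1 h before 6 h stimulation with 4 μg/ml Gardiquimod, 0.5% DMSO final. Supernatant TNF-α measured by chemiluminescent ELISA; EC50 from curve fitting.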
(In general: In an ELISA, binding on a coated surface is turned into a signal by an enzyme label.)

Another assay has as its system IL23p19 in THP-1 Cells. Nature of the assay: LPS Induced IL23p19 in THP-1 Cells (with IFNγ Primed) Assay. Format: cell-based. As to conditions: Homo sapiens, THP-1, 18 h, read-out: IL23 (THP, LPS) (IC50, μM). The procedure, abridged: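 THP-1 cells (50K/well) primed with IFNγ (50 ng/mL) about 18 h, then given compound and stimulated with LPS for 18 h at 37 °C. Secreted IL-23p19 measured by sandwich ELISA with chemiluminescent read-out, giving EC50. Cell Titer Glo used on the remaining cells for toxicity.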

A further assay concerns the target IRAK4 (Homo sapiens (Human), UniProt Q9NWZ3). Put plainly: IRAK4 ADP-Glo Assay. The class given is biochemical. As to conditions: MBP substrate. The procedure, abridged:
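Human IRAK4 kinase reaction with MBP substrate plus ATP in Tris-HCl/MgCl2/BSA/DTT buffer, pH 7.4, run 60 min at room temperature or 30 min at 30 °C. ADP formed was measured by ADP-Glo luminescence after ATP depletion (40 min) and detection reagent (30 min).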

For a further assay, the system named is TNF-α in human PBMCs. Put plainly: R848-induced TNF-α in human PBMCs Assay. Format: cell-based. The settings on record: Homo sapiens, PBMC, 4 h, read-out: TNFα (PBMC, R848) (IC50, μM). The procedure, abridged: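 Human PBMCs at 200K/well were pretreated with compound, then R848-stimulated for 4 h at 37 °C, 5% CO2. Supernatant TNF-α quantified by chemiluminescent ELISA; EC50 from curve fitting.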

IRAK4, sequence (Q9NWZ3 whole entry): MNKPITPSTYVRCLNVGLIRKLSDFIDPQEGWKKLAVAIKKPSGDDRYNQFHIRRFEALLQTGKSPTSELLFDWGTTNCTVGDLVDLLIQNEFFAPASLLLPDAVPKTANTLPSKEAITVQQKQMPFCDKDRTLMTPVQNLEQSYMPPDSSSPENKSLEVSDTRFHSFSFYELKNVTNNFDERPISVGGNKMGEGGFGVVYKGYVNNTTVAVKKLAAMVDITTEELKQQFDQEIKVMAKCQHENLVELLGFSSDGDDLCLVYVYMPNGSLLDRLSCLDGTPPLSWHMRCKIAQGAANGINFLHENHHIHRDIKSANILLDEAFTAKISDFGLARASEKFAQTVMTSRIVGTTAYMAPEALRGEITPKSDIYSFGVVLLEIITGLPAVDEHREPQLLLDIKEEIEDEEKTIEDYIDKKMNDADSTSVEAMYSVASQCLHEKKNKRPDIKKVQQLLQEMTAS

The term IC50 denotes the concentration that gives 50% inhibition. Consider `CC(C)Oc1cc2c(OC[C@@H]3CCC(=O)N3)ncc(C#CC3CN(C(=O)OC(C)(C)C)C3)c2cc1C(N)=O` [Compound I-24, tert-butyl (S)-3-((6-carbamoyl-7-isopropoxy-1-((5-oxopyrrolidin-2-yl)methoxy)isoquinolin-4-yl)ethynyl)azetidine-1-carboxylate], for which the IC50 in assay [1] worked out at 22.4 nM; in the assay on IL23p19 in THP-1 Cells it was 0.125 µM; at IRAK4 it was 8.1 nM; in the assay with TNF-α in human PBMCs, 0.0763 µM.
For `CC(C)Oc1cc2c(OC[C@@H]3CCC(=O)N3)ncc(C#CC3CNC3)c2cc1C(N)=O` [Compound I-25, (S)-4-(azetidin-3-ylethynyl)-7-isopropoxy-1-((5-oxopyrrolidin-2-yl)methoxy)isoquinoline-6-carboxamide], the IC50 in assay [1] was determined as 1350 nM; with IL23p19 in THP-1 Cells it was 12.7 µM; on IRAK4, 3.3 nM; in the assay on TNF-α in human PBMCs, 2.36 µM.
As to `CC(C)Oc1cc2c(OC[C@@H]3CCC(=O)N3)ncc(C#CC3CN(C)C3)c2cc1C(N)=O` [Compound I-26, (S)-7-isopropoxy-4-((1-methylazetidin-3-yl)ethynyl)-1-((5-oxopyrrolidin-2-yl)methoxy)isoquinoline-6-carboxamide], the IC50 in assay [1] was 161 nM; in the assay on IL23p19 in THP-1 Cells, 0.726 µM; against IRAK4 it was 2.6 nM; with TNF-α in human PBMCs, 0.363 µM.
Consider `CC(C)Oc1cc2c(OC[C@@H]3CCC(=O)N3)ncc(C#CC3CN(C(C)C)C3)c2cc1C(N)=O` [Compound I-27, (S)-7-isopropoxy-4-((1-isopropylazetidin-3-yl)ethynyl)-1-((5-oxopyrrolidin-2-yl)methoxy)isoquinoline-6-carboxamide], for which the IC50 stood at 514 nM in assay [1], 0.634 µM in the assay with IL23p19 in THP-1 Cells, 5.6 nM against IRAK4 and 0.176 µM in the assay with TNF-α in human PBMCs.
On to `COC(=O)N1CC(C#Cc2cnc(OC[C@@H]3CCC(=O)N3)c3cc(OC(C)C)c(C(N)=O)cc23)C1` [Compound I-28, methyl (S)-3-((6-carbamoyl-7-isopropoxy-1-((5-oxopyrrolidin-2-yl)methoxy)isoquinolin-4-yl)ethynyl)azetidine-1-carboxylate], for which the IC50 in assay [1] is 111 nM; in the assay with IL23p19 in THP-1 Cells, 0.14 µM; against IRAK4 it was 6.3 nM; in the assay on TNF-α in human PBMCs, 0.0331 µM.
Consider `CNC(=O)N1CC(C#Cc2cnc(OC[C@@H]3CCC(=O)N3)c3cc(OC(C)C)c(C(N)=O)cc23)C1` [Compound I-29, (S)-7-isopropoxy-4-((1-(methylcarbamoyl)azetidin-3-yl)ethynyl)-1-((5-oxopyrrolidin-2-yl)methoxy)isoquinoline-6-carboxamide], for which the IC50 in assay [1] turned out to be 1750 nM; with IL23p19 in THP-1 Cells, 4.25 µM; against IRAK4, 5.5 nM; in the assay with TNF-α in human PBMCs, 0.686 µM.
Take `COC1(OC)CC(C#Cc2cnc(OC[C@@H]3CCC(=O)N3)c3cc(OC(C)C)c(C(N)=O)cc23)C1` [Compound I-30, (S)-4-((3,3-dimethoxycyclobutyl)ethynyl)-7-isopropoxy-1-((5-oxopyrrolidin-2-yl)methoxy)isoquinoline-6-carboxamide]: the IC50 was found to be 71 nM in assay [1], 0.142 µM in the assay on IL23p19 in THP-1 Cells, 6.4 nM against IRAK4 and 0.0947 µM in the assay with TNF-α in human PBMCs.
As for `CC(C)Oc1cc2c(OC[C@@H]3CCC(=O)N3)ncc(C#C[C@H]3C[C@@H](N(C)C)C3)c2cc1C(N)=O` [Compound I-31, 4-((cis-3-(dimethylamino)cyclobutyl)ethynyl)-7-isopropoxy-1-(((S)-5-oxopyrrolidin-2-yl)methoxy)isoquinoline-6-carboxamide], the IC50 was 89.8 nM in assay [1], 0.136 µM in the assay on IL23p19 in THP-1 Cells, 3.5 nM at IRAK4 and 0.0637 µM in the assay with TNF-α in human PBMCs.
With `CC(C)Oc1cc2c(OC[C@@H]3CCC(=O)N3)ncc(-c3cnn(C4CC4)c3)c2cc1C(N)=O` [Compound I-32, (S)-4-(1-cyclopropyl-1H-pyrazol-4-yl)-7-isopropoxy-1-((5-oxopyrrolidin-2-yl)methoxy)isoquinoline-6-carboxamide], the IC50 in assay [1] is 569 nM; in the assay on IL23p19 in THP-1 Cells, 2.21 µM; on IRAK4, 8.5 nM; in the assay with TNF-α in human PBMCs, 0.45 µM.
